Laboratory results reported in patent publication US20230219969A1 (priority 2020, published 2023).
Like-named read-outs stand apart in the source and are kept apart here.

Columns and labels:
5HT2A [1] = molecular target: T1, 5HT2A (Homo sapiens, UniProt P28223); assay: Serotonin 5-HT2A in vitro radioligand binding competition assay ([3H]-DOI); parameters: purchased Epics Therapeutics S.A. (Belgium) FAST-0505B
Experimental: Serotonin 5-HT2A In Vitro Radioligand Binding Competition Assay. The 5-HT2A radioligand binding competition assay was performed at Epics Therapeutics S.A. (Belgium, FAST-0505B) using conventional methods. Briefly, competition binding is performed in duplicate in the wells of a 96 well plate (Master Block, Greiner, 786201) containing binding buffer (optimized for each receptor), membrane extracts (amount of protein/well optimized for each receptor), radiotracer [^3H]-DOI (final concentration optimized for each receptor) and test compound. Nonspecific binding is determined by co-incubation with 200-fold excess of cold competitor. The samples are incubated in a final volume of 0.1 ml at a temperature and for a duration optimized for each receptor and then filtered over filter plates. Filters are washed six times with 0.5 ml of ice-cold washing buffer (optimized for each receptor) and 50 μl of Microscint 20 (Packard) are added in each well. The plates are incubated 15 min on an orbital shaker and then counted with a TopCount™ for 1 min/well.
(§1) The compounds provided herein were tested in the Serotonin 5-HT2A and 5-HT2C in vitro radioligand binding and cellular IPOne agonism assays. The binding and agonism functional potencies of several compound provided herein compounds (as indicated by their IC50s or EC50s) are shown in Table 11.

5HT2A [2] = molecular target: T1, 5HT2A; assay: Serotonin 5-HT2A in vitro cellular IPOne agonism assay; type: cell-based; parameters: host or cells: CHO-K1
Experimental: Serotonin 5-HT2A In Vitro Cellular IPOne Agonism Assay. The 5-HT2A IPOne HTRF assay was performed at Epics Therapeutics S.A. (Belgium, FAST-0505I) using conventional methods. Briefly, CHO-K1 cells expressing human recombinant 5-HT2A receptor grown to mid-log phase in culture media without antibiotics were detached with PBS-EDTA, centrifuged, and resuspended in medium without antibiotics buffer. 20,000 cells are distributed in a 96 well plate and incubated overnight at 37° C. with 5% CO2.
For agonist testing, the medium is removed and 20 μl of assay buffer plus 20 μl of test compound or reference agonist are added in each well. The plate is incubated for 60 min. at 37° C. with 5% CO2.
After addition of the lysis buffer containing IP1-d2 and anti-IP1 cryptate detection reagents, plates are incubated 1-hour at room temperature, and fluorescence ratios are measured according to the manufacturer specification, with the HTRF kit.
as §1

[3] = [3H]-DOI competition, membrane extracts, read-out: 5-HT2A Radioligand Binding Activity
[4] = CHO-K1 cells, IPOne HTRF, read-out: 5-HT2A IPOne Agonism Activity

T1 sequence (P28223 whole entry): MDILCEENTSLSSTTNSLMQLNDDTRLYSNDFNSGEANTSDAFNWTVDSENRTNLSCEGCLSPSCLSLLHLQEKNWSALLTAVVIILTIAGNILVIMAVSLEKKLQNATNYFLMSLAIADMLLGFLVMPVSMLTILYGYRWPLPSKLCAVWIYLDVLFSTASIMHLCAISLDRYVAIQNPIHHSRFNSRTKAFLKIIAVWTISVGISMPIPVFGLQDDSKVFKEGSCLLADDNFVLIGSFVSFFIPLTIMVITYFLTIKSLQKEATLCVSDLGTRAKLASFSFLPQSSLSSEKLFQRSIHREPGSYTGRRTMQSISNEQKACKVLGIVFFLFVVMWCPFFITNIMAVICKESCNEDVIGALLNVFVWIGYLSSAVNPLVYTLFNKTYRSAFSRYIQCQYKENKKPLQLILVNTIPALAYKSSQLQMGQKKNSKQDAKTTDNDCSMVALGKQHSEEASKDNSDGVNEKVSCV

| SMILES | IC50 (5HT2A [1]; [3]) | EC50 (5HT2A [2]; [4]) | IC50 (5HT2A [1]) | EC50 (5HT2A [2]) |
| --- | --- | --- | --- | --- |
| COc1ccc2c(c1)CN(CCN(C)C)C2 [Example 10, 2-(5-methoxyisoindolin-2-yl)-N,N-dimethylethan-1-amine] | 1 to 10 µM | > 10 µM |  |  |
| COc1ccc2c(c1)CCN(CCN(C)C)C2 [Example 11, 2-(6-methoxy-3,4-dihydroisoguinolin-2(1H)-yl)-N,N-dimethylethan-1-amine] | 0.101 to 1 µM | > 10 µM |  |  |
| CN(C)C(C)(C)Cn1ccc2c(F)c(F)ccc21 [Example 12, 1-(4,5-difluoro-1H-indol-1-yl)-N,N,2-trimethylpropan-2-amine] | > 10 µM | > 10 µM |  |  |
| Cc1cn(CC(C)(C)N(C)C)c2ccc(F)cc12 [Example 13, 1-(5-fluoro-3-methyl-1H-indol-1-yl)-N,N,2-trimethylpropan-2-amine] | > 10 µM | 1 to 10 µM |  |  |
| CN(C)C(C)(C)Cn1ccc2cc(F)ccc21 [Example 14, 1-(5-fluoro-1H-indol-1-yl)-N,N,2-trimethylpropan-2-amine] | > 10 µM | > 10 µM |  |  |
| COc1ccc2c(ccn2CC(C)(C)N(C)C)c1F [Example 15, 1-(4-fluoro-5-methoxy-1H-indol-1-yl)-N,N,2-trimethylpropan-2-amine] | > 10 µM | > 10 µM |  |  |
| COc1cc2ccn(CC(C)(C)N(C)C)c2cc1F [Example 16, 1-(6-fluoro-5-methoxy-1H-indol-1-yl)-N,N,2-trimethylpropan-2-amine] | > 10 µM | > 10 µM |  |  |
| COc1cc(F)c2c(ccn2CC(C)(C)N(C)C)c1 [Example 17, 1-(7-fluoro-5-methoxy-1H-indol-1-yl)-N,N,2-trimethylpropan-2-amine] | > 10 µM | > 10 µM |  |  |
| CN(C)C(C)(C)Cn1ccc2c(F)cccc21 [Example 18, 1-(4-fluoro-1H-indol-1-yl)-N,N,2-trimethylpropan-2-amine] | > 10 µM | > 10 µM |  |  |
| CN(C)C(C)(C)Cn1ccc2ccc(F)cc21 [Example 19, 1-(6-fluoro-1H-indol-1-yl)-N,N,2-trimethylpropan-2-amine] | > 10 µM | > 10 µM |  |  |
| CN(C)C(C)(C)Cn1ccc2cccc(F)c21 [Example 20, 1-(7-fluoro-1H-indol-1-yl)-N,N,2-trimethylpropan-2-amine] | > 10 µM | > 10 µM |  |  |
| COc1ccc2c(ccn2CC(C)(C)N(C)C)n1 [Example 21, 1-(5-methoxy-1H-pyrrolo[3,2-b]pyridin-1-yl)-N,N,2-trimethylpropan-2-amine] | > 10 µM | > 10 µM |  |  |
| COc1cc2ccn(CC(C)(C)N(C)C)c2cn1 [Example 22, 1-(5-methoxy-1H-pyrrolo[2,3-c]pyridin-1-yl)-N,N,2-trimethylpropan-2-amine] | > 10 µM | > 10 µM |  |  |
| COc1ncc2c(ccn2CC(C)(C)N(C)C)n1 [Example 23, 1-(2-methoxy-5H-pyrrolo[3,2-d]pyrimidin-5-yl)-N,N,2-trimethylpropan-2-amine] | > 10 µM | > 10 µM |  |  |
| C[C@@H](N)Cn1ccc2cncnc21 [Example 26, (R)-1-(7H-pyrrolo[2,3-d]pyrimidin-7-yl)propan-2-amine] | > 10 µM | 1 to 10 µM |  |  |
| COc1cnc2c(ccn2C[C@@H](C)N)c1 [Example 34, (R)-1-(5-methoxy-1H-pyrrolo[2,3-b]pyridin-1-yl)propan-2-amine] | > 10 µM | 1 to 10 µM |  |  |
| CN[C@H](C)Cn1ccc2cc(OC)cnc21 [Example 35, (R)-1-(5-methoxy-1H-pyrrolo[2,3-b]pyridin-1-yl)-N-methylpropan-2-amine] | > 10 µM | > 10 µM |  |  |
| C[C@@H](N)Cn1ccc2cnccc21 [Example 37, (R)-1-(1H-pyrrolo[3,2-c]pyridin-1-yl)propan-2-amine] | > 10 µM | > 10 µM |  |  |
| CN[C@H](C)Cn1ccc2cnccc21 [Example 38, (R)—N-methyl-1-(1H-pyrrolo[3,2-c]pyridin-1-yl)propan-2-amine] | > 10 µM | > 10 µM |  |  |
| Cc1cn(CC(C)(C)N)c2ccc(F)cc12 [Example 40, 1-(5-fluoro-3-methyl-1H-indol-1-yl)-2-methylpropan-2-amine] | 1 to 10 µM | 1 to 10 µM |  |  |
| CC(C)(N)Cn1ccc2c(F)c(F)ccc21 [Example 41, 1-(4,5-difluoro-1H-indol-1-yl)-2-methylpropan-2-amine] | 1 to 10 µM | 1 to 10 µM |  |  |
| COc1ccc2c(ccn2CC(C)(C)N)c1 [Example 42, 1-(5-methoxy-1H-indol-1-yl)-2-methylpropan-2-amine] | > 10 µM | 1 to 10 µM |  |  |
| CN(C)CC(=O)n1ccc2cc(F)ccc21 [Example 43, 2-(dimethylamino)-1-(5-fluoro-1H-indol-1-yl)ethan-1-one] | > 10 µM | > 10 µM |  |  |
| CN(C)CC(=O)n1ccc2ccccc21 [Example 44, 2-(dimethylamino)-1-(1H-indol-1-yl)ethan-1-one] | > 10 µM | > 10 µM |  |  |
| C[C@H](C(=O)n1ccc2ccccc21)N(C)C [Example 46, (R)-2-(dimethylamino)-1-(1H-indol-1-yl)propan-1-one] |  |  | > 10 µM | > 10 µM |
| C[C@H](C(=O)n1ccc2cc(F)ccc21)N(C)C [Example 48, (R)-2-(dimethylamino)-1-(5-fluoro-1H-indol-1-yl)propan-1-one] |  |  | > 10 µM | > 10 µM |
